Where two headings read alike, the source gives them in different places.

Holding throughout (experiment): KINOMEscan (ScanMAX) kinase profiling
What all share (type): binding

The target in test [1] is T1, panel of 468 kinases (Homo sapiens, UniProt O15111).
T1 construct: purchased KINOMEscan (ScanMAX) service
T1 sequence (O15111 1-745): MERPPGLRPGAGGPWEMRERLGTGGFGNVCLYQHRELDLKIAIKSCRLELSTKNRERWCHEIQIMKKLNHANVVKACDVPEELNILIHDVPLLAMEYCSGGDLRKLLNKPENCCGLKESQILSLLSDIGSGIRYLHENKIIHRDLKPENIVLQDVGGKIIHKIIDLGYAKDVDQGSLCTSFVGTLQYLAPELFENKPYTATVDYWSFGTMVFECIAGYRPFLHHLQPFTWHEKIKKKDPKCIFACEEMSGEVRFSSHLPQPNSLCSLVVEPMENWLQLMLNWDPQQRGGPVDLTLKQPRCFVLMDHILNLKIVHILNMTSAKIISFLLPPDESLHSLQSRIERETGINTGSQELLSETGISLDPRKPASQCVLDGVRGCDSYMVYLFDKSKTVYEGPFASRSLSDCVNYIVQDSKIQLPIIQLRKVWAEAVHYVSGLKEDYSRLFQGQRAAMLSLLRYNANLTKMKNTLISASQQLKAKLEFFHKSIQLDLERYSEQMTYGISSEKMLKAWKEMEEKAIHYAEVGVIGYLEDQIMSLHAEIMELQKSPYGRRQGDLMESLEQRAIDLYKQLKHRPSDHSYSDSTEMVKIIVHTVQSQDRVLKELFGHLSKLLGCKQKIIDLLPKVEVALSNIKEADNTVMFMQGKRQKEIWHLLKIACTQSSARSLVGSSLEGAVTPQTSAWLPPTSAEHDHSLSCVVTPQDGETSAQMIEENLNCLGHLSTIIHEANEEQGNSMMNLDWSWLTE
As to conditions: IKK-alpha; 1 μM; read-out: % control.

The target of test [2] is T2, panel of 468 kinases (Homo sapiens, UniProt P00519, F317I).
T2 construct: purchased KINOMEscan (ScanMAX) service
T2 sequence (P00519 whole entry F317I): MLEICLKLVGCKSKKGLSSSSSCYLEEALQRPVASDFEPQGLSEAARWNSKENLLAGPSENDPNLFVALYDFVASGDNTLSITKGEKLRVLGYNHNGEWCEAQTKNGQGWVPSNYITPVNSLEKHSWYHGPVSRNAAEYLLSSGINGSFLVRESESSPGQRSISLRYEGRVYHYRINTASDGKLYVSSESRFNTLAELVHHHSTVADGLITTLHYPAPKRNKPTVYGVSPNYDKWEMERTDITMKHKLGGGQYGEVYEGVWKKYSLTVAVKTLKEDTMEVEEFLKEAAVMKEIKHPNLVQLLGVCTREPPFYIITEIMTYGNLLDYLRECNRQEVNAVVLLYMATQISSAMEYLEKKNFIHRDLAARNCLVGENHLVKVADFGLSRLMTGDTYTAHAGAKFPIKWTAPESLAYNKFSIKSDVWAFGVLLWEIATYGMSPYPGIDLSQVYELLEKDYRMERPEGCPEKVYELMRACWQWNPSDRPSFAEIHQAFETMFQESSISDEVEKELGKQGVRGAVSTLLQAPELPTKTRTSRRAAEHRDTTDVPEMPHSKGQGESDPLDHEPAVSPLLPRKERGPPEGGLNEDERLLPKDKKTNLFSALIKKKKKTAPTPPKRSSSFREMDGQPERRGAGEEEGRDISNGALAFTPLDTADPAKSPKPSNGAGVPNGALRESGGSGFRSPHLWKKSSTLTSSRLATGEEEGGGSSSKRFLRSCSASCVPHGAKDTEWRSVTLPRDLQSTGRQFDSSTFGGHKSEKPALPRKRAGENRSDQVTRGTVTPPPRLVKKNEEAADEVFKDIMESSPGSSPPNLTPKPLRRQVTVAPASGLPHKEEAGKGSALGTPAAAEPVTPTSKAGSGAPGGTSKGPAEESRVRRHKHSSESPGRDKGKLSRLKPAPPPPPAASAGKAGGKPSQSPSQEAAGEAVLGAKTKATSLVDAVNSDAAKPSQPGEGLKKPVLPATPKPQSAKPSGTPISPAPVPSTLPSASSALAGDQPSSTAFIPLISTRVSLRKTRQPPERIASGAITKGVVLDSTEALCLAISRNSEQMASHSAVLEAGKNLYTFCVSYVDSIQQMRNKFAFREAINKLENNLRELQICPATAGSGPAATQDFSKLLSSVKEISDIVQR
As to conditions: 1 μM, read-out: % control.

Test [3] concerns the target T3, panel of 468 kinases (Homo sapiens, UniProt P07333).
T3 construct: purchased KINOMEscan (ScanMAX) service
As to conditions: 1 μM, read-out: % control.

Test [4] deals with T4, panel of 468 kinases (Homo sapiens, UniProt P12931).
T4 construct: purchased KINOMEscan (ScanMAX) service
The following applies: SRC; 1 μM; read-out: % control.

Test [5] concerns the target T5, panel of 468 kinases (Homo sapiens, UniProt P16234).
T5 construct: purchased KINOMEscan (ScanMAX) service
As to conditions: PDGFRA; 1 μM; read-out: % control.

The target of test [6] is T6, panel of 468 kinases (Homo sapiens, UniProt P35590).
T6 construct: purchased KINOMEscan (ScanMAX) service
The following applies: TIE1; 1 μM; read-out: % control.

Test [7] has as its target T7, panel of 468 kinases (Homo sapiens, UniProt Q00537).
T7 construct: purchased KINOMEscan (ScanMAX) service
As to conditions: PCTK2; 1 μM; read-out: % control.

Test [8] addresses T8, panel of 468 kinases (Homo sapiens, UniProt Q09013).
T8 construct: purchased KINOMEscan (ScanMAX) service
T8 sequence (Q09013 1-629): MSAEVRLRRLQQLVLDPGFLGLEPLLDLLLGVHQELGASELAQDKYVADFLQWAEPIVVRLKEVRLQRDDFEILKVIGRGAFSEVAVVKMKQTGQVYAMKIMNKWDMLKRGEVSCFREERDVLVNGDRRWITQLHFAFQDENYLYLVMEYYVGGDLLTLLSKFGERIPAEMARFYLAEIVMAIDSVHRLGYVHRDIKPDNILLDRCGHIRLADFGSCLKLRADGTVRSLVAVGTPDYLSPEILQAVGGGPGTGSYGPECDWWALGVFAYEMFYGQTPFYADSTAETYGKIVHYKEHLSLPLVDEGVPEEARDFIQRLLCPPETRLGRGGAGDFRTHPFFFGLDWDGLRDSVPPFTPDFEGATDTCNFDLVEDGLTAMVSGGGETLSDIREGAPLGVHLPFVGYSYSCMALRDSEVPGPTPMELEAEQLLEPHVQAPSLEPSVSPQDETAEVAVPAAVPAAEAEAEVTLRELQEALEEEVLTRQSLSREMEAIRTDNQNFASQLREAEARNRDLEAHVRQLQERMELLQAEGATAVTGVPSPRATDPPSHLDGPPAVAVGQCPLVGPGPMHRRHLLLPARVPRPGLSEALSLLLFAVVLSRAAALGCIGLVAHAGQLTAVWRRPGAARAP
The following applies: DMPK; 1 μM; read-out: % control.

Test [9] deals with T9, panel of 468 kinases (Homo sapiens, UniProt Q16566).
T9 construct: purchased KINOMEscan (ScanMAX) service
T9 sequence (Q16566 1-473): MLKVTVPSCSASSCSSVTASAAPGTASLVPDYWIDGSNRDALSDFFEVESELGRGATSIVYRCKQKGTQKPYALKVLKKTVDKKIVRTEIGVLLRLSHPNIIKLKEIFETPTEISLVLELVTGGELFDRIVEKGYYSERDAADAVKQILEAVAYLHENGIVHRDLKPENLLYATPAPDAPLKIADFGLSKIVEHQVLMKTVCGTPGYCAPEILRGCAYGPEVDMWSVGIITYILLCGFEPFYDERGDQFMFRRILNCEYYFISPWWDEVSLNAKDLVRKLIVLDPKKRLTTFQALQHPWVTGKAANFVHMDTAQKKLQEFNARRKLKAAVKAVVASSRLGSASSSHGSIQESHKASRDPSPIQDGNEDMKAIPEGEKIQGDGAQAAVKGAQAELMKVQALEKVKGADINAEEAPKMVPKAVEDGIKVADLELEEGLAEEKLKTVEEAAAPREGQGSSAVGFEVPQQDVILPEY
The following applies: CAMK4; 1 μM; read-out: % control.

The target of test [10] is T10, panel of 468 kinases (Homo sapiens, UniProt Q86Z02).
T10 construct: purchased KINOMEscan (ScanMAX) service
T10 sequence (Q86Z02 whole entry): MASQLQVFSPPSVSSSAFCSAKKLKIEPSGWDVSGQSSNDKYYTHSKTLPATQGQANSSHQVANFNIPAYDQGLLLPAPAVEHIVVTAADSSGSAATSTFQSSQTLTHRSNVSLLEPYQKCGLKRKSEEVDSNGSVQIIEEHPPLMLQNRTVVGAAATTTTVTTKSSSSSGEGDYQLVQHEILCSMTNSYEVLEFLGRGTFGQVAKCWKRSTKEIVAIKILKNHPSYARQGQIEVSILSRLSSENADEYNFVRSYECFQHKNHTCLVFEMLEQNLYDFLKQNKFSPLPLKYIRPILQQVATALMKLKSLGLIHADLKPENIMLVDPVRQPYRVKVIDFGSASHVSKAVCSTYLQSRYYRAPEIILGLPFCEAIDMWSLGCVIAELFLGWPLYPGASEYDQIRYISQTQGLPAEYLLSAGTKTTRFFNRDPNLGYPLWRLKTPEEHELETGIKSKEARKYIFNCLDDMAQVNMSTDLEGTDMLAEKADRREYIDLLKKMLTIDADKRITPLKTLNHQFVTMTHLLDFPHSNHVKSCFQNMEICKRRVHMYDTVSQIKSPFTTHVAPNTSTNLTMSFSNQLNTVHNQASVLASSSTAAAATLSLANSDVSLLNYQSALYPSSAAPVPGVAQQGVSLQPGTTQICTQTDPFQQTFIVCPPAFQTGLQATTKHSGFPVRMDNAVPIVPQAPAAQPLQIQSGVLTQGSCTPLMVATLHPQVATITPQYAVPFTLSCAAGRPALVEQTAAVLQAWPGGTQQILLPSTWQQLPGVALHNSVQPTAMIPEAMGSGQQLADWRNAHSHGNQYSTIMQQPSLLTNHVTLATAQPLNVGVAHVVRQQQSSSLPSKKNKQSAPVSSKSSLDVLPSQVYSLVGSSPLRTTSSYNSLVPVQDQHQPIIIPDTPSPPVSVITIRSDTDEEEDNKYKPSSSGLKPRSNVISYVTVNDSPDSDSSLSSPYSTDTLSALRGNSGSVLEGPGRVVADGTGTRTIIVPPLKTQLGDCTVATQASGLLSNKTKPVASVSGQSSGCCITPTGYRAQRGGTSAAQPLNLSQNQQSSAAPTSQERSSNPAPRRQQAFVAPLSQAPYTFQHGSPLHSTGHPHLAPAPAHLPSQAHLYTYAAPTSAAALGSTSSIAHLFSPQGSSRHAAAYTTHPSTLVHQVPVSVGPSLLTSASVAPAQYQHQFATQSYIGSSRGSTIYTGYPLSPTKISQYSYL
The following applies: HIPK1; 1 μM; read-out: % control.

Test [11] concerns the target T11, panel of 468 kinases (Homo sapiens, UniProt Q8WU08).
T11 construct: purchased KINOMEscan (ScanMAX) service
The following applies: YANK1; 1 μM; read-out: % control.

T7 sequence (Q00537 whole entry): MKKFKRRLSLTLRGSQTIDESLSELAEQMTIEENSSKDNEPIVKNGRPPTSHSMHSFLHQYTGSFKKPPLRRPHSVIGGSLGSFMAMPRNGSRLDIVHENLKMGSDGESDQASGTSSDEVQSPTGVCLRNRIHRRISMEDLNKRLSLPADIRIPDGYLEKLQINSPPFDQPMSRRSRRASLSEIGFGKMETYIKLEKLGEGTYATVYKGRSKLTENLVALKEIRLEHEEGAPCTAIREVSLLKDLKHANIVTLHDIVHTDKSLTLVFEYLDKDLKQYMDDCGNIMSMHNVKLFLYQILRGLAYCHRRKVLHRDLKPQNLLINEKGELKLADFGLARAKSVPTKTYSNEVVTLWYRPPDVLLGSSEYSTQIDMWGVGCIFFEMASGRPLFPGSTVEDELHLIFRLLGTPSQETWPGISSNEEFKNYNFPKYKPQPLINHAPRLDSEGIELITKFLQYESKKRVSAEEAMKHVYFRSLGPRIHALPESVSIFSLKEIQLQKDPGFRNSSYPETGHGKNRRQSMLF
T5 sequence (P16234 24-1089): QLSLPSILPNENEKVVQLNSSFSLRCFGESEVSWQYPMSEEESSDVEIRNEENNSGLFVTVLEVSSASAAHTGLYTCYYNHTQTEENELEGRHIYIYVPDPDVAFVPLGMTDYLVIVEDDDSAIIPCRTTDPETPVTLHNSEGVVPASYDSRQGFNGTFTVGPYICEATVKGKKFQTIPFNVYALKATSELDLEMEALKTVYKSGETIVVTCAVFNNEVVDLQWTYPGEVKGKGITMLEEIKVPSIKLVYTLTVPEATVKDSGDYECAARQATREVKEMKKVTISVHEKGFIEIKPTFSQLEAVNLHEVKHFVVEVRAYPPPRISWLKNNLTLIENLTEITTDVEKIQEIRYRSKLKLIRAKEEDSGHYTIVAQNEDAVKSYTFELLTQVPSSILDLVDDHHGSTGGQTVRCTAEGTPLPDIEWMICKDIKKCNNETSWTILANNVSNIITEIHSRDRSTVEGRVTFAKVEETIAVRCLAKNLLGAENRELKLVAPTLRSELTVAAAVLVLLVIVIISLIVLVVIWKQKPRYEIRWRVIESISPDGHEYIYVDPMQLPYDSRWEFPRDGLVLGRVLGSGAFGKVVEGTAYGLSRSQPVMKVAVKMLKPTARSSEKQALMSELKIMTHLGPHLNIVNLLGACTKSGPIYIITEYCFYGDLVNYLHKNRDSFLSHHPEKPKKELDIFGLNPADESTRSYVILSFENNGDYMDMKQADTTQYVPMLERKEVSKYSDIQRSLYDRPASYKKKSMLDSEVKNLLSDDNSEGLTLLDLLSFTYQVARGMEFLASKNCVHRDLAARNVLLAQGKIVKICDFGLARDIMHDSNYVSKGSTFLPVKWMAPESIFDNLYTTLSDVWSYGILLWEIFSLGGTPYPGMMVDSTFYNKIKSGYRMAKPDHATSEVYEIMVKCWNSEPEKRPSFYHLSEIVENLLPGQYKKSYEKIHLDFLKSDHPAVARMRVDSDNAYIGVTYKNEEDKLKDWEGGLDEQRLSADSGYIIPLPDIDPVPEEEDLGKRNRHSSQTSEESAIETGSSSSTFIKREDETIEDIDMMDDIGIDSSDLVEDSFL
T3 sequence (P07333 20-972): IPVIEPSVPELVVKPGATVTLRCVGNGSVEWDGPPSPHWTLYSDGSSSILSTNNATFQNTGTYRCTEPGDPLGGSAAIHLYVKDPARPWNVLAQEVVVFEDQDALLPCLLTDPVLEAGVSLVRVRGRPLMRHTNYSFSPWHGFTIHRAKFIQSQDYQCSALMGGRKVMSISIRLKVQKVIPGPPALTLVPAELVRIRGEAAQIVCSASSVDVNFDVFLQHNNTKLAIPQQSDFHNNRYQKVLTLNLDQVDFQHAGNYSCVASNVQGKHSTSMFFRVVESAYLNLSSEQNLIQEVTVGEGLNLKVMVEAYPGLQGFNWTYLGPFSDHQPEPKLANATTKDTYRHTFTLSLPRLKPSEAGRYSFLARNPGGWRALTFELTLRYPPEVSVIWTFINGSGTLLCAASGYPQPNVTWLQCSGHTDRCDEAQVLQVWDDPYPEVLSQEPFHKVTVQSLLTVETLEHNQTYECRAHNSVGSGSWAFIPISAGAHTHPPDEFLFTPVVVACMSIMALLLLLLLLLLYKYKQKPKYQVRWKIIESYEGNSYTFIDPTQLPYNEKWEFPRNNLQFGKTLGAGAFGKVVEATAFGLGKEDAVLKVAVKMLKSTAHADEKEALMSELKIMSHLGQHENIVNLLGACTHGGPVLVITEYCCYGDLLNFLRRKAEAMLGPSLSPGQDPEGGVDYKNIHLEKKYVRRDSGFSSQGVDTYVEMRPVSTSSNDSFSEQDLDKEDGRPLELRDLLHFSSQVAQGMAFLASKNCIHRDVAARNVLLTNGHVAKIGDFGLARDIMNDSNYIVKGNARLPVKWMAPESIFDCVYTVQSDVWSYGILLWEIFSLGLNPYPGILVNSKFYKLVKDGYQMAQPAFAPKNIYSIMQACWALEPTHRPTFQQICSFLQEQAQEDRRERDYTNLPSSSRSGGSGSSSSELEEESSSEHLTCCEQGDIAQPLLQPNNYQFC

As to `CNc1nc(Nc2ccc(S(=O)(=O)N3CCC(N4CCOCC4)CC3)cc2OC)nc2[nH]cc(Cl)c12` [Compound 12, 5-chloro-N2-(2-methoxy-4-((4-morpholinopiperidin-1-yl)sulfonyl)phenyl)-N4-methyl-7H-pyrrolo[2,3-d]pyrimidine-2,4-diamine], the remaining binding at 1 µM at panel of 468 kinases [1] was 76%; on panel of 468 kinases [2] (ABL1(F317I)-nonphosphorylated) it was 100%; at panel of 468 kinases [2] (ABL1(F317I)-phosphorylated), 54%; on panel of 468 kinases [3] (CSF1R-autoinhibited), 100%; on panel of 468 kinases [3] (CSF1R), 100%; at panel of 468 kinases [4], 100%. For the same compound, the remaining binding at 1 µM on panel of 468 kinases [5] was found to be 77%; at panel of 468 kinases [6] it was 100%; on panel of 468 kinases [7], 100%; on panel of 468 kinases [8], 97%; on panel of 468 kinases [9], 100%; at panel of 468 kinases [10], 48%. In addition, at panel of 468 kinases [11], the remaining binding at 1 µM was 100%.
For `CNc1nc(Nc2ccc(C(=O)N3CCC(N4CCOCC4)CC3)c3c2OCO3)nc2[nH]cc(Cl)c12` [Compound 75, (7-((5-chloro-4-(methylamino)-7H-pyrrolo[2,3-d]pyrimidin-2-yl)amino)benzo[d][1,3]dioxol-4-yl)(4-morpholinopiperidin-1-yl)methanone], the remaining binding at 1 µM turned out to be 65% at panel of 468 kinases [1]; 100% at panel of 468 kinases [2] (ABL1(F317I)-nonphosphorylated); 83% at panel of 468 kinases [2] (ABL1(F317I)-phosphorylated); 99% at panel of 468 kinases [3] (CSF1R-autoinhibited); 98% at panel of 468 kinases [3] (CSF1R); 100% at panel of 468 kinases [4]. The remaining binding at 1 µM at panel of 468 kinases [5] was determined as 67%; at panel of 468 kinases [6] it was 100%; at panel of 468 kinases [7], 100%; at panel of 468 kinases [8] it was 100%; on panel of 468 kinases [9], 100%; on panel of 468 kinases [10], 23%. Further, the remaining binding at 1 µM on panel of 468 kinases [11] was 100%.
Consider `CNc1nc(Nc2ccc(P3(=O)CCN(C4CCOCC4)CC3)cc2OC)nc2[nH]cc(Cl)c12` [Compound 77, 4-(4-((5-chloro-4-(methylamino)-7H-pyrrolo[2,3-d]pyrimidin-2-yl)amino)-3-methoxyphenyl)-1-(tetrahydro-2H-pyran-4-yl)-1,4-azaphosphinane 4-oxide], for which the remaining binding at 1 µM at panel of 468 kinases [1] came to 81%; on panel of 468 kinases [2] (ABL1(F317I)-nonphosphorylated), 100%; on panel of 468 kinases [2] (ABL1(F317I)-phosphorylated), 51%; at panel of 468 kinases [3] (CSF1R-autoinhibited), 100%; at panel of 468 kinases [3] (CSF1R), 100%; on panel of 468 kinases [4], 100%. Also, the remaining binding at 1 µM came out at 69% on panel of 468 kinases [5]; 100% at panel of 468 kinases [6]; 100% on panel of 468 kinases [7]; 100% on panel of 468 kinases [8]; 100% on panel of 468 kinases [9]; 32% on panel of 468 kinases [10]. The remaining binding at 1 µM at panel of 468 kinases [11] stood at 98%.

(Values after US12479847B2 (DANA-FARBER CANCER INSTITUTE, INC., priority 2019, dated 2025).)
